The subject of assay [1] is CD8+ T-lymphocytes (PBMC). Description: staining of PBMC with HLA-A*0201 tetramers, flow cytometry. It is filed as cell-based, human. The text has this:
Peripheral blood mononuclear cells (in the following PBMC) from two healthy donors (HDI and HD2), which were serologically typed as CMV-positive, were isolated by gradient centrifugation (FicoLite H) and frozen.
HLA-A *0201 tetrameric complexes were produced as described by Altman et al., 1996, Phenotypic analysis of antigen-specific T-lymphocytes, Science 274: 94-96, as follows: The HLA-A2-binding peptides used for the refolding were […] (SEQ ID NO: 1) from keratin 18 and […] (SEQ ID NO: 2) from pp65 HCMVA. Tetramers were assembled by mixing biotinylated monomers with streptavidin-PE or streptavidin-APC and 2-3×10^6 cells were incubated 30 min at 4° C. with both tetramers: 10 μg/ml for each monomer in PBS, 0.01% NaN3, 2 mM EDTA, 50% fetal calf serum). Then, monoclonal antibodies Anti-CD4-FITC (Coulter-Immunotech) and Anti-CD8-PerCP (Becton Dickinson) were added for 20 min. After three washes, samples were fixed in FACS buffer, 1% formaldehyde. Four-color analysis was performed on a FACScalibur cytometer (Becton Dickinson).
Staining of PBMC of tumor patients and healthy individuals with HLA-A*0201 tetramers was performed with tetramers reconstituted either with adipophilin, keratin 18 or met-proto-oncogene.
Dot plots show samples from one of three independent experiments for 1×10^6 PBMC. In the plots, percentage of tetramer^+-cells within the CD8^+ CD4^− population are indicated.
For orientation: Flow cytometry measures light scatter and fluorescence of single cells or particles in a stream.

For assay [2], the system named is CD8+ T-cells (PBMC from HLA-A2 positive renal cell carcinoma patients). Description: quantitative PCR assay of γ-Interferon-mRNA production after 7 day in vitro sensitization with peptide. It is filed as cell-based, human. Particulars: PBMC from 6 HLA-A2 positive renal cell carcinoma patients. As for the experimental part: PBMC from 6 HLA-A2 positive renal cell carcinoma patients were tested for reaction against four of the relevant peptides: HLA-A*02-restricted ligands from adipophilin, keratin 18, K1AA0367 and met-proto-oncogene. In doing so, a very sensitive quantitative PCT assay was carried out to detect γ-Interferon-mRNA production by CD8^+ T-cells following a 7 day-in vitro-sensitization with peptide.

“ALLNIKVKL (listed as Homo sapiens) [keratin 18]”: in assay [1] (HLA-A*0201 tetramer staining of PBMC of healthy individuals), the “healthy individuals in whom a significant specific CD8+ T-lymphocyte population was found” value was 4 out of 22. Also, the “γ-Interferon-mRNA production by CD8+ T-cells (response to peptide)” value in assay [2] is reported as “Sporadic responses”. In the case of “NLVPMVATV [CMV tetramer, reference compound]”, in assay [1] (simultaneous staining with HLA-A2/keratin 18-PE and HLA-A2/CMV-APC tetramers, specificity control), the “staining of the keratin 18-specific CD8+ population with the tetramer” value is “did not stain”.

“SVASTITGV (listed as Homo sapiens) [adipophilin, HLA-A*02-restricted ligand from adipophilin]”: in assay [2], the “γ-Interferon-mRNA production by CD8+ T-cells (response to peptide)” value is listed as “Sporadic responses”. Same read-out and setting: the result for “YVDPVITSI (listed as Homo sapiens) [met-proto-oncogene, HLA-A*02-restricted ligand derived from met proto-oncogene]” reads “Sporadic responses”.

(Values after US9783849B2, “Method for identifying immunoreactive peptides” (immatics biotechnologies GmbH, priority 2002, dated 2017).)
